Earlier results as cited in US20080114046A1, “Pharmaceutical Combination of Angiotensin II Antagonists and Angiotensin I Converting Enzyme Inhibitors” (Boehringer Ingelheim International GmbH, priority 2002, published 2008).

Tests used:
[1] = first clinical trials
[2] = normotensive patients with diabetic nephropathy; losartan added to enalapril
[3] = HOPE study, treatment with ACE inhibitor ramipril

SMILES	renoprotective effect [1]	antiproteinuric effect of enalapril [2]	reduction of the risk of the combined primary cardiovascular outcome [3]
CCCCC1=NC2(CCCC2)C(=O)N1Cc1ccc(-c2ccccc2-c2nnn[nH]2)cc1 [irbesartan]	renoprotective effect	–	–
CCCCc1nc(Cl)c(CO)n1Cc1ccc(-c2ccccc2-c2nn[nH]n2)cc1 [losartan]	renoprotective effect	potentiated	–
CCOC(=O)[C@H](CCc1ccccc1)N[C@@H](C)C(=O)N1[C@H](C(=O)O)C[C@@H]2CCC[C@@H]21 [ramipril]	–	–	22%
